Measurements reported in publication PMC6429356, “Development of Anthraquinone Analogues as Phosphoglycerate Mutase 1 Inhibitors” (Molecules, 2019).

Tests used:
PGAM1 = target: T1, PGAM1 (Homo sapiens, UniProt P18669); assay: PGAM1 enzymatic assay (enolase-pyruvate kinase-LDH coupled, OD 340 nm); format: biochemical; settings: for inhibition at 10 µM: 10 μM compound, mean ± s.d. (n = 2); for IC50: optimized enzymatic assay, mean ± s.d. (n = 3)
T1 construct: His6 (C); made in house
Experimental: (§1) Firstly, 1 μL inhibitor in dimethyl sulfoxide (DMSO) incubated with 49 μL 4.6 nM recombinant PGAM1, then 50 μL enzyme mix containing 3 units/mL enolase (Sigma-Aldrich, Saint Louis, MO, USA), 3 units/mL recombinant pyruvate kinase M2 (Sigma-Aldrich), 0.6 units/mL recombinant lactatdehydrogenase (LDH, Sigma-Aldrich), 100 mM Tris-HCl, 100 mM KCl, 5 mM MgCl2, 1 mM adenosine diphosphate (ADP), 0.2 mM the reduced form of nicotinamide adenine dinucleotide (NADH) and 4 mM 3PG was added. PGAM1 activity was measured as the decrease in OD at 340 nm. In addition, we performed a counter screening in which 4mM 2PG was added to 50 μL reaction mix containing the indicated inhibitor, 3 units/mL enolase (Sigma-Aldrich), 3 units/mL recombinant pyruvate kinase M2 (Sigma-Aldrich), 0.6 units/mL recombinant LDH (Sigma-Aldrich), 100 mM Tris-HCl, 100 mM KCl, 5 mM MgCl2, 1 mM ADP and 0.2 mM NADH. The other three enzyme activity was measured as the decrease in OD at 340 nm.

[1] = tested on: enolase-pyruvate kinase-LDH; assay: Counter screening: control linked enzyme assay with 2PG; format: biochemical; settings: 0.5 μM compound, pyruvate kinase M2, LDH without PGAM1, mean ± s.d. (n = 2)
Experimental: as §1

H1299 cells = assay: Cell viability assay (MTT, 72 h), H1299; format: cell-based; settings: Homo sapiens, NCI-H1299, proliferation, mean ± s.d. (n = 3)
Experimental: The H1299 cell line was obtained from Guangzhou Jenniobio Biotechnology Co., Ltd. (Guangzhou, China), PC9 and A549 cells were gifted from Deng Jiong’s lab in the School of Medicine, Shanghai Jiao Tong University, Shanghai, China). H1299, PC9 cells were cultured in RPMI-1640 medium and A549 cells were cultured in F-12K medium containing 10% fetal bovine serum (FBS), 100 units/mL of Penicillin and 100 μg/mL Streptomycin. In cell viability assays, 2000 H1299 cells, A549 cells or 1000 PC9 cells per well were seeded in 96-well plate. After attachment for 24 h, the cells were treated with indicated inhibitor for 72 h. After incubation with 0.5 mg/mL methylthiazolyldiphenyl-tetrazolium bromide (MTT) for 4 h, cell viability was measured as the OD at 570 nm.

T1 sequence (P18669 whole entry): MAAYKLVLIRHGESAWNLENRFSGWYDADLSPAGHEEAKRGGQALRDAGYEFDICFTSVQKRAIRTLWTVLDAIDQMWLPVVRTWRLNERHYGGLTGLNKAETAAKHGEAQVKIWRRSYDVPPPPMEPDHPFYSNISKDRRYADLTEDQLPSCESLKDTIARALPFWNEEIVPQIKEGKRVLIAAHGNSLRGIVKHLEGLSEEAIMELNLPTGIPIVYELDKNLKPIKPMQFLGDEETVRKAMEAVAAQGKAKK

SMILES	inhibition at 10 µM (PGAM1) [%]	IC50 (PGAM1) [µM]	Inhibition in the Control Linked Enzyme Assay (0.5 μM) [1] [%]	IC50 (H1299 cells) [µM]
CCOC(=O)COc1ccc2c(c1OCC(=O)OCC)C(=O)c1ccccc1C2=O [Compound 6a, diethyl 2,2′-((9,10-dioxo-9,10-dihydroanthracene-1,2-diyl)bis(oxy)) diacetate]	-0.6 ± 1			
O=C(O)COc1ccc2c(c1OCC(=O)O)C(=O)c1ccccc1C2=O [Compound 6b, 2,2′-((9,10-dioxo-9,10-dihydroanthracene-1,2-diyl)bis(oxy)) diacetic acid]	14.3 ± 5.9			
CCOC(=O)COc1ccc2c(c1O)C(=O)c1ccccc1C2=O [Compound 6c]	0			
O=C(O)COc1ccc2c(c1O)C(=O)c1ccccc1C2=O [Compound 6d]	5.5 ± 0.03			
CN(C)C(=O)COc1ccc2c(c1O)C(=O)c1ccccc1C2=O [Compound 6e, 2-((1-hydroxy-9,10-dioxo-9,10-dihydroanthracen-2-yl)oxy)-N,N-dimethylacetamide]	20.2 ± 2.2			
O=C1c2ccccc2C(=O)c2c1cc(NS(=O)(=O)c1ccc(C(F)(F)F)cc1)c(O)c2O [Compound 9a, N-(3,4-Dihydroxy-9,10-dioxo-9,10-dihydroanthracen-2-yl)-4-(trifluoromethyl) benzenesulfonamide]		0.54 ± 0.04	8.0 ± 5.0	20.7 ± 0.6
O=C1c2ccccc2C(=O)c2c1cc(NS(=O)(=O)c1ccc([N+](=O)[O-])cc1)c(O)c2O [Compound 9b, N-(3,4-Dihydroxy-9,10-dioxo-9,10-dihydroanthracen-2-yl)-4-nitrobenzenesulfonamide]		0.47 ± 0.08	−2.9 ± 0.3	25.8 ± 2.2
CCOC(=O)COc1cc(NS(=O)(=O)c2ccc(Cl)cc2)c2c(c1O)C(=O)c1ccccc1C2=O [Compound 12, ethyl 2-((4-((4-chlorophenyl)sulfonamido)-1-hydroxy-9,10-dioxo-9,10-dihydroanthracen-2-yl)oxy) acetate]	10			
O=C(O)COc1cc(NS(=O)(=O)c2ccc(Cl)cc2)c2c(c1O)C(=O)c1ccccc1C2=O [Compound 13, 2-((4-((4-chlorophenyl)sulfonamido)-1-hydroxy-9,10-dioxo-9,10-dihydroanthracen-2-yl)oxy) acetic acid]	34			

Continued, values first:

inhibition at 10 µM (PGAM1) [%]	IC50 (PGAM1) [µM]	Inhibition in the Control Linked Enzyme Assay (0.5 μM) [1] [%]	IC50 (H1299 cells) [µM]	SMILES
	> 10			CCOC(=O)COc1c(NS(=O)(=O)c2ccc(Cl)cc2)cc2c(c1O)C(=O)c1ccccc1C2=O [Compound 14a, ethyl 2-((3-((4-chlorophenyl)sulfonamido)-1-hydroxy-9,10-dioxo-9,10-dihydroanthracen-2-yl)oxy) acetate]
	> 10			O=C(O)COc1c(NS(=O)(=O)c2ccc(Cl)cc2)cc2c(c1O)C(=O)c1ccccc1C2=O [Compound 14b, 2-((3-((4-chlorophenyl)sulfonamido)-1-hydroxy-9,10-dioxo-9,10-dihydroanthracen-2-yl)oxy) acetic acid]
	2.92 ± 0.11		26.9 ± 2.1	COc1c(NS(=O)(=O)c2ccc(Cl)cc2)cc2c(c1O)C(=O)c1ccccc1C2=O [Compound 14c, 4-chloro-N-(4-hydroxy-3-methoxy-9,10-dioxo-9,10-dihydroanthracen-2-yl) benzene-sulfonamide]
	> 10			O=C1c2ccccc2C(=O)c2c1cc1c(c2O)OCCN1S(=O)(=O)c1ccc(Cl)cc1 [Compound 14e, 4-((4-chlorophenyl)sulfonyl)-12-hydroxy-3,4-dihydro-2H-anthra[2,3-b][1,4]-oxazine-6,11-dione]
	2 ± 0.2		> 100	NNC(=O)COc1c(NS(=O)(=O)c2ccc(Cl)cc2)cc2c(c1O)C(=O)c1ccccc1C2=O [Compound 14f, 4-chloro-N-(3-(2-hydrazinyl-2-oxoethoxy)-4-hydroxy-9,10-dioxo-9,10-dihydroanthracen-2-yl) benzenesulfonamide]
	> 10		28.5 ± 0.6	CS(=O)(=O)Oc1c(NS(=O)(=O)c2ccc(Cl)cc2)cc2c(c1O)C(=O)c1ccccc1C2=O [Compound 14g, 3-((4-chlorophenyl)sulfonamido)-1-hydroxy-9,10-dioxo-9,10-dihydroanthracen-2-yl methanesulfonate]
